PubChem BioAssay AID248 (DTP/NCI, 2004)
Inconclusive results and toxic doses are left out. Cut-off read from the data, not from the text of the source: active = T/C of 150% or more; inactive = T/C below 125%.

Tested on: L1210 leukemia ip in BDF1 mice, survival T/C
Assay: NCI In Vivo Anticancer Drug Screen. Data for tumor model L1210 Leukemia (intraperitoneal) in B6D2F1 (BDF1) mice
Conditions: endpoint: mean survival time, higher = longer survival
Summary of the method: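 Tumor was transplanted into mice, which were then dosed with test compound or vehicle alone. Survival was recorded for each group, and the treated figure was expressed relative to the control figure.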

[1] = dose: 200.0 mg/kg/injection, schedule: Q01DX009 (ip), vehicle: Klucel (hydroxypropylcellulose) (HPC)
[2] = dose: 100.0 mg/kg/injection, schedule: Q01DX009 (ip), vehicle: Klucel (hydroxypropylcellulose) (HPC)
[3] = dose: 100.0 mg/kg/injection, schedule: Q04DX003 (ip), vehicle: Klucel (hydroxypropylcellulose) (HPC)
[4] = dose: 200.0 mg/kg/injection, schedule: Q04DX003 (ip), vehicle: Klucel (hydroxypropylcellulose) (HPC)
[5] = dose: 400.0 mg/kg/injection, schedule: Q01DX009 (ip), vehicle: Klucel (hydroxypropylcellulose) (HPC)
[6] = dose: 400.0 mg/kg/injection, schedule: Q04DX003 (ip), vehicle: Klucel (hydroxypropylcellulose) (HPC)

Measured: T/C

c1ccc(-c2cc3ccccc3[nH]2)cc1
inactive: dose: 100.0 mg/kg/injection, schedule: Q01DX001 (ip), vehicle: Klucel (hydroxypropylcellulose) (HPC) 98 % of control | dose: 200.0 mg/kg/injection, schedule: Q01DX001 (ip), vehicle: Klucel (hydroxypropylcellulose) (HPC) 96 % of control | [1] 94 % of control | dose: 400.0 mg/kg/injection, schedule: Q01DX001 (ip), vehicle: Klucel (hydroxypropylcellulose) (HPC) 102 % of control

Brc1ccc(C=C2c3ccccc3-c3ccccc32)cc1
inactive: [2] 100 % of control | [3] 96 % of control | [1] 97 % of control | [4] 97 % of control | [5] 100 % of control | [6] 94 % of control

O=C1OC(=O)C2C3C=CC(C12)C1C3C1N1C(=O)CCC1=O (stereo not given)
inactive: dose: 50.0 mg/kg/injection, schedule: Q04DX003 (ip), vehicle: acetone 96 % of control | dose: 100.0 mg/kg/injection, schedule: Q04DX003 (ip), vehicle: acetone 88 % of control | dose: 200.0 mg/kg/injection, schedule: Q04DX003 (ip), vehicle: acetone 95 % of control

O=C(Nc1ccc([N+](=O)[O-])cc1)Nc1ccc([N+](=O)[O-])cc1
inactive: [2] 93 % of control | dose: 100.0 mg/kg/injection, schedule: Q01DX009 (ip), vehicle: saline sonified 109 % of control | dose: 100.0 mg/kg/injection, schedule: Q01DX009 (ip), vehicle: saline with Tween-80 109 % of control | dose: 100.0 mg/kg/injection, schedule: Q04DX002 (ip), vehicle: Klucel (hydroxypropylcellulose) (HPC) 101 % of control | [3] 104 % of control | dose: 100.0 mg/kg/injection, schedule: Q04DX003 (ip), vehicle: saline sonified 96 % of control | dose: 100.0 mg/kg/injection, schedule: Q04DX003 (ip), vehicle: saline with Tween-80 100 % of control | [1] 94 % of control | dose: 200.0 mg/kg/injection, schedule: Q01DX009 (ip), vehicle: saline sonified 110 % of control | dose: 200.0 mg/kg/injection, schedule: Q01DX009 (ip), vehicle: saline with Tween-80 90 % of control | dose: 200.0 mg/kg/injection, schedule: Q04DX002 (ip), vehicle: Klucel (hydroxypropylcellulose) (HPC) 90 % of control | [4] 104 % of control | dose: 200.0 mg/kg/injection, schedule: Q04DX003 (ip), vehicle: saline sonified 91 % of control | dose: 200.0 mg/kg/injection, schedule: Q04DX003 (ip), vehicle: saline with Tween-80 102 % of control | [5] 88 % of control | dose: 400.0 mg/kg/injection, schedule: Q01DX009 (ip), vehicle: saline sonified 98 % of control | dose: 400.0 mg/kg/injection, schedule: Q01DX009 (ip), vehicle: saline with Tween-80 86 % of control | dose: 400.0 mg/kg/injection, schedule: Q04DX002 (ip), vehicle: Klucel (hydroxypropylcellulose) (HPC) 97 % of control | [6] 98 % of control | dose: 400.0 mg/kg/injection, schedule: Q04DX003 (ip), vehicle: saline sonified 93 % of control | dose: 400.0 mg/kg/injection, schedule: Q04DX003 (ip), vehicle: saline with Tween-80 97 % of control

O=C(O)CCCCCNC(=O)OCc1ccccc1
inactive: dose: 100.0 mg/kg/injection, schedule: Q01DX009 (ip), vehicle: gum acacia 102 % of control | dose: 100.0 mg/kg/injection, schedule: Q04DX003 (ip), vehicle: gum acacia 91 % of control | dose: 200.0 mg/kg/injection, schedule: Q01DX009 (ip), vehicle: gum acacia 103 % of control | dose: 200.0 mg/kg/injection, schedule: Q04DX003 (ip), vehicle: gum acacia 93 % of control | dose: 400.0 mg/kg/injection, schedule: Q01DX009 (ip), vehicle: gum acacia 86 % of control | dose: 400.0 mg/kg/injection, schedule: Q04DX003 (ip), vehicle: gum acacia 91 % of control

O=C(COc1cc(Cl)c(Cl)cc1Cl)NO
inactive: dose: 50.0 mg/kg/injection, schedule: Q01DX009 (ip), vehicle: Klucel (hydroxypropylcellulose) (HPC) 98 % of control | [2] 104 % of control | [3] 101 % of control | [1] 112 % of control | [4] 101 % of control
